Experimental data as given in patent US20220160703A1, “TUMOR-SELECTIVE COMBINATION THERAPY” (The Board of Regents of The University of Texas System, priority 2019, published 2022).

Tests used:
[1] = test system: MC38 cells with CRISPR-based NQO1 Knockout; assay: Cell survival of NQO1 knockout MC38 cells; type: cell-based, murine; conditions: 3 hr exposure, survival 48 hr later
Protocol: (§1) (FIG. 1A) NQO1 positive tumor cell lines MC38, TC-1 and Ag104Ld and NQO1 negative cell lines Panc02 and B16 grown in 48-well plates were treated with β-lap (0-8 μM) for a 3 hr followed by washing and replacing medium. Cell viability was determined by Sulforhodamine B (SRB) Assay 4 days later. […] (FIG. 1C) MC38 cells with CRISPR-based NQO1 Knockout (MC38 NQO1KO #5) planted in 96-well plates were exposed to β-lap for 3 hr and cell survival was assessed 48 hr later. […] (FIG. 1E) MC38 cells were exposed to a lethal dose of β-lap (4 μM) for indicated times, then stained with 7-AAD and Annexin V followed by flow cytometry analysis. […] (FIG. 1H) MC38 and B16 NQO1 #1 cells were exposed to β-lap for a 3 hr. Catalase (1000 U/ml) was added and cell survival was assessed 48 hr later. […] Tumor growth was monitored twice a week.
(§2) FIGS. 17A-I (related to FIGS. 1A-J). […] (FIG. 17A) NQO1 expression in different murine cancer cell lines was determined by western blotting assay. […] Cell viability was determined by Sulforhodamine B (SRB) Assay 48 hr later. […] Cell viability was determined by SRB Assay 48 hr later. […] Catalase (1000 U/ml) was added and cell viability was assessed 48 hr later. […] Tumor growth was monitored twice a week. […] Data are shown as mean±SEM. **P<0.01, ***P<0.001, ****P<0.0001 determined by unpaired student t-test (FIG. 17G) or two-way ANOVA (FIG. 17H and FIG. 17I). […]

[2] = target: NQO1 (Homo sapiens, UniProt P15559); conditions: in ~2 min; cited from earlier work
[3] = test system: B16 cells stably harboring a pCMV-NQO1 expression vector; assay: Cell survival of NQO1 overexpressing B16 cells; type: cell-based, murine; conditions: 3 hr exposure, survival 48 hr later
Protocol: as §1, §2

[4] = Methemoglobinemia and weight loss; type: in vivo; conditions: MC38 tumor bearing mice, 10 Gy + β-lap
[5] = test system: MC38 tumor; assay: MC38 subcutaneous syngeneic tumor model; type: in vivo, mice
[6] = test system: MC38-OVA cells; assay: Prophylactic tumor vaccination with β-lap-induced dying MC38-OVA cells; type: in vivo, mice; conditions: β-lap-induced dying MC38-OVA cells s.c., rechallenge after 7 days
Excerpt: (FIG. 5B) The research schema for in vivo cross-presentation of tumor specific antigen from β-lap-induced dying tumor cells in FIG. 5C and FIG. 5D. (FIGS. 5C-D) Live or β-lap-induced dying MC38-OVA cells were subcutaneously inoculated into the flank of WT or Tlr4^−/− C57BL/6 (n=3-4/group) mice along with or without anti-HMGB1 antibody. 5 days later, the tumor drain lymph mode cells were collected and re-stimulated with OVA protein, OT-1 peptide or irradiated MC38-OVA cells for 48 hr. IFNγ producing cells were determined by ELISPOTs assay (FIG. 5C), and IFNγ secretion level was quantified by CBA mouse IFNγ assay (FIG. 5D). (FIG. 5E) The research schema for the immunogenic vaccine assay in FIG. 5F. (FIG. 5F) MC38-OVA cells treated with β-lap in vitro were inoculated s.c. along with or without anti-HMGB1 antibody into the flank of C57BL/6 mice (n=5-7/group). […] Data are shown as mean±SEM from at least two to three independent experiments. *P<0.05, **P<0.01, and ***P<0.001 determined by two-way ANOVA (FIG. 5C and FIG. 5D) or log-rank test (FIG. 5F).
The numbers of tumor antigen-specific T cells (FIG. 5C) and IFNγ production (FIG. 5D) in TdLN were determined; (ii) C57BL/6 mice that received vaccination with β-lap-induced dying MC38-OVA cells in the presence of anti-HMGB1Ab were rechallanged with MC38-OVA for evaluation of the antitumor protection (FIGS. 5E-F). […]

[7] = test system: B16 tumors; assay: B16 (NQO1 null or NQO1 overexpressing) tumor model; type: in vivo, mice
[8] = test system: ROS; assay: Cellular ROS / H2O2 detection; type: cell-based, murine; conditions: for ROS level: 3 hr, DCFDA
Protocol: (FIG. 1A) NQO1 positive tumor cell lines MC38, TC-1 and Ag104Ld and NQO1 negative cell lines Panc02 and B16 grown in 48-well plates were treated with β-lap (0-8 μM) for a 3 hr followed by washing and replacing medium. Cell viability was determined by Sulforhodamine B (SRB) Assay 4 days later. […] (FIG. 1C) MC38 cells with CRISPR-based NQO1 Knockout (MC38 NQO1KO #5) planted in 96-well plates were exposed to β-lap for 3 hr and cell survival was assessed 48 hr later. […] (FIG. 1E) MC38 cells were exposed to a lethal dose of β-lap (4 μM) for indicated times, then stained with 7-AAD and Annexin V followed by flow cytometry analysis. […] (FIG. 1H) MC38 and B16 NQO1 #1 cells were exposed to β-lap for a 3 hr. Catalase (1000 U/ml) was added and cell survival was assessed 48 hr later. (FIG. 1I) C57BL/6 mice (n=5/group) were transplanted with MC38 cells and treated with β-lap (0.03 mg, 0.1 mg or 0.3 mg, intratumorally; or 25 mg/kg, i.v.) every other day for four times. (FIG. 1J) C57BL/6 mice were transplanted with MC38 cells (NQO1 WT or KO, n=5/group) and treated with β-lap (0.3 mg, i.t.) every other day for four times. Tumor growth was monitored twice a week.
(FIG. 8A) NQO1 expression in multiple murine tumor lines was immunoblotted as indicated. (FIG. 8B) NQO1^+ cells (MC38, TC-1, and Ag104Ld) and NQO1^− cells (B16 and Pan02) were treated for 3 h with β-lap±DIC (50 μM). Drugs were removed and survival assessed 5 days later. (FIG. 8C) Relative H2O2 levels were assessed in various cells treated with β-lap for 3 h at the indicated doses using CellRox-Glo. Values were normalized to DMSO-treated control cells. (FIG. 8D) TC-1 cells exposure to β-lap for 12 h, later PARP-1 and Caspase-3 levels were analyzed by western blotting assay. […]
(FIG. 21A) Viability of murine cell lines following IB-DNQ treatment for 4 h. […] (FIGS. 21D-E) DNA double strand break was assessed via comet assay (FIG. 21D) and γH2AX foci/nuclei immunofluorescence (FIG. 21E). (FIG. 21F) MC38 cell death after a 4 h exposure to IB-DNQ was determined by 7AAD and Annexin V staining using flow cytometry analysis.

Chain of NQO1 (P15559 whole entry, species assumed): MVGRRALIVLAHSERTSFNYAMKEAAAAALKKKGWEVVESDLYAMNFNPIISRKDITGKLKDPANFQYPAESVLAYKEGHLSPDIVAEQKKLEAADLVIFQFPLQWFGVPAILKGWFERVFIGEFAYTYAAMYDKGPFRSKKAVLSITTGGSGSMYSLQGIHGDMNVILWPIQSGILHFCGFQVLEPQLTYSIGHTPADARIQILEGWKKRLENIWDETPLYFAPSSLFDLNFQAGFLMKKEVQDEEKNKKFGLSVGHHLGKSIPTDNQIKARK

## CC1(C)CCC2=C(O1)c1ccccc1C(=O)C2=O [β-lap, β-lapachone]
[1]
  response to β-lap (cell survival): resistance to β-lap treatment
[2]
  NAD(P)H consumed by one mole of drug: ~60 mol
  superoxide generated by one mole of drug: ~120 mol
[3]
  response to β-lap (cell survival): sensitivity to β-lap
[4]
  methemoglobinemia or weight loss: no significant methemoglobinemia or weight loss
[5]; 10 Gy + 0.1 mg β-lap, 3 i.t. injections, tumors 100 mm^3
  tumor growth with irradiation: significant inhibition of tumor growth
[5]; 10 Gy + β-lap 30 mg/kg i.p. every other day, 6 injections, tumors 50 mm3
  response with irradiation: significant synergistic responses
[5]; NQO1 KO MC38, 0.3 mg i.t. four times
  therapeutic effect in NQO1 knockout MC38 mouse models: abolished
[5]; WT C57BL/6, 4 doses of β-lap (0.3 mg, i.t.)
  mice cured: 50%
[5]; local β-lap 15 mg/kg, 7/15 mice
  mice with complete tumor rejection: 46.7%
[5]; small tumors (about 50 mm^3), β-lap 0.3 mg i.t. four times
  TGI: 93.0%
[5]; β-lap 0.1 mg i.t., anti-IFNAR Ab 150 μg
  antitumor efficacy with anti-IFNAR blocking antibody: greatly impaired the antitumor efficacy
[5]; β-lap 0.3 mg i.t. + anti-HMGB1 200 μg i.p.
  effect with HMGB1 blockade: diminished the effect
[5]; β-lap 0.3 mg i.t. + anti-Ly-6G 200 μg
  therapeutic effect with neutrophil depletion: greatly impaired the therapeutic effect
[5]; β-lap 0.3 mg i.t. day 9, 12, 15
  tumor regression in IFNAR knockout mice: totally abrogated
[5]; β-lap 0.3 mg i.t. four times
  therapeutic effect in Ifnar−/− mice: abrogated
[5]; β-lap 0.3 mg i.t. ± anti-CD4 200 μg
  antitumor effect alone or with CD4+ T cell depletion: controlled MC38 tumor growth
[5]; β-lap 30 mg/kg i.p. six times, anti-PD-L1, tumors about 50-100 mm^3
  tumor growth, systemic treatment: moderate inhibition of tumor growth
[6]
  growth of re-challenged tumor after immunization: prevented the growth of the re-challenged tumor
[7]; NQO1null parental B16, β-lap 0.3 mg i.t. four times
  tumor response: didn't response
[7]; NQO1 overexpressing B16 clone #1 and #4, β-lap 0.3 mg i.t. four times
  tumor response: dramatic tumor suppression
[7]; NQO1 overexpressing B16 tumors (about 100 mm^3), β-lap 0.3 mg i.t. four times, anti-PD-L1 150 μg i.p. three times
  TGI: 68.67%
[8]; NQO1+ cells but not NQO1− cells, 3 h exposure, CellRox-Glo
  H2O2 level: High level of H2O2
[8]; NQO1 null lines
  ROS level: much less
[8]; NQO1 positive murine tumor line
  ROS level: high level of ROS
